The values that follow come from patent publication US9580435B2, “Pyrrolo[2,3-D]pyrimidine derivatives as CB2 receptor agonists” (priority 2013, dated 2017).

Test [1] concerns the target T1, human CB1 receptors (Homo sapiens, UniProt P21554).
T1 construct: expressed in transfected cells; host or cells: CHO cells
The experiment in a line: functional cAMP assay, CHO cells expressing human CB1 receptors. It counts as cell-based. As for the experimental part:
(§1) CHO cells expressing human CB1 or CB2 receptors are seeded 17-24 hours prior to the experiment 50.000 cells per well in a black 96 well plate with flat clear bottom (Corning Costar #3904) in DMEM (Invitrogen No. 31331), lx HT supplement, with 10% fetal calf serum and incubated at 5% CO2 and 37° C. in a humidified incubator. The growth medium was exchanged with Krebs Ringer Bicarbonate buffer with 1 mM IBMX and incubated at 30° C. for 30 min. Compounds were added to a final assay volume of 100 μl and incubated for 30 min at 30° C. Using the cAMP-Nano-TRF detection kit the assay (Roche Diagnostics) was stopped by the addition of 50 μl lysis reagent (Tris, NaCl, 1.5% Triton X100, 2.5% NP40, 10% NaN3) and 50 μl detection solutions (20 μM mAb Alexa700-cAMP 1:1, and 48 μM Ruthenium-2-AHA-cAMP) and shaken for 2 h at room temperature. The time-resolved energy transfer is measured by a TRF reader (Evotec Technologies GmbH), equipped with a ND:YAG laser as excitation source. The plate is measured twice with the excitation at 355 nm and at the emission with a delay of 100 ns and a gate of 100 ns, total exposure time 10 s at 730 (bandwidth 30 nm) or 645 nm (bandwidth 75 nm), respectively. The FRET signal is calculated as follows: FRET=T730-Alexa730-P(T645-B645) with P=Ru730-B730/Ru645-B645, where T730 is the test well measured at 730 nM, T645 is the test well measured at 645 nm, B730 and B645 are the buffer controls at 730 nm and 645 nm, respectively. cAMP content is determined from the function of a standard curve spanning from 10 μM to 0.13 nM cAMP.
(§2) EC50 values were determined using Activity Base analysis (ID Business Solution, Limited). The EC50 values for a wide range of cannabinoid agonists generated from this assay were in agreement with the values published in the scientific literature.
(In general: Cyclic AMP is a second messenger, typically raised through Gs and lowered through Gi signalling.)

For test [2], the target named is T2, human CB2 receptors (Homo sapiens, UniProt P34972).
T2 construct: expressed in transfected cells; host or cells: CHO cells
T2 sequence (P34972 whole entry): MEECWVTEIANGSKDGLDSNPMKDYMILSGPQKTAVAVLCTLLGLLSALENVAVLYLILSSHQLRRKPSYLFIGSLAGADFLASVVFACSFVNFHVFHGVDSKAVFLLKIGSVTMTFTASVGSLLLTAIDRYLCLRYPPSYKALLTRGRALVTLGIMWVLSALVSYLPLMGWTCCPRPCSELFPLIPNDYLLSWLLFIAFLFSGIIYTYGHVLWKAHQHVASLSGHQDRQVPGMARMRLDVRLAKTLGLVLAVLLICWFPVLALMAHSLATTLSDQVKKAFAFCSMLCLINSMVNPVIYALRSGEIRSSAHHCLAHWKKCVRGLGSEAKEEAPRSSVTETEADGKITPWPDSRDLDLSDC
As to the kind of experiment: functional cAMP assay, CHO cells expressing human CB2 receptors. It counts as cell-based. How it is done:
as §1, §2

The mark [3] stands for this setting: human EC50, functional cAMP assay, CHO cells expressing human CB2, read-out: EC50:CB2.

Each structure is given as a SMILES string. Like-named read-outs stand apart in the source and are kept apart here.

T1 sequence (P21554 whole entry): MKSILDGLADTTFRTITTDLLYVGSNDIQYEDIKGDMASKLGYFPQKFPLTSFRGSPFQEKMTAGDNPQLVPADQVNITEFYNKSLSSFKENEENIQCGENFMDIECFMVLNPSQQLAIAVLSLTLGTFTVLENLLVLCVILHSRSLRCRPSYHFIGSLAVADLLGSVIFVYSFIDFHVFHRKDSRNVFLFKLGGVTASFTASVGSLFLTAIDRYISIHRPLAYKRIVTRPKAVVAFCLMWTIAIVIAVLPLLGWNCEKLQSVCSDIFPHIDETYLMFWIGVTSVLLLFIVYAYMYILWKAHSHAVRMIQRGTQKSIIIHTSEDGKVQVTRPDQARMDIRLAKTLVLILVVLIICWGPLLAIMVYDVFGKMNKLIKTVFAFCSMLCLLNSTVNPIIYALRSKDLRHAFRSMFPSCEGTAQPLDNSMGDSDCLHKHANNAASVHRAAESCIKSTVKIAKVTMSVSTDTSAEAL

By EC50 is commonly meant the concentration at which the effect is half-maximal. For `Cn1nnnc1Cn1ccc2c(N3CCC(O)C3)nc(C(C)(C)C)nc21` (stereo not drawn) [Example 34, 1-[2-tert-butyl-7-[(1-methyltetrazol-5-yl)methyl]pyrrolo[2,3-d]pyrimidin-4-yl]pyrrolidin-3-ol], the EC50 in test [1] is over 10000 nM; in test [2] (setting [3]), 134 nM.

On to `Cc1noc(Cn2ccc3c(N4CCC(F)(F)C4)nc(C(C)(C)C)nc32)n1` [Example 8, 5-[[2-tert-butyl-4-(3,3-difluoropyrrolidin-1-yl)pyrrolo[2,3-d]pyrimidin-7-yl]methyl]-3-methyl-1,2,4-oxadiazole], for which the results for the EC50 in test [1] and in test [2] were over 10000 nM and 49.6 nM, respectively.

Regarding `CC(C)(C)c1nc(N2CCC(F)(F)C2)c2ccn(Cc3ccccc3Cl)c2n1` [Example 1, 2-tert-butyl-7-[(2-chlorophenyl)methyl]-4-(3,3-difluoropyrrolidin-1-yl)pyrrolo[2,3-d]pyrimidine], the EC50 in test [1] is over 10000 nM; in test [2], 10.1 nM.

With `Cc1nnc(Cn2ccc3c(N4CCC(O)C4)nc(C(C)(C)C)nc32)o1` (stereo not drawn) [Example 33, 1-[2-tert-butyl-7-[(5-methyl-1,3,4-oxadiazol-2-yl)methyl]pyrrolo[2,3-d]pyrimidin-4-yl]pyrrolidin-3-ol], the EC50 in test [1] was over 10000 nM; in test [2] (setting [3]), 350 nM.

Turning to `CC(=O)OC1CCN(c2nc(C(C)(C)C)nc3c2ccn3Cc2cccc(Cl)c2Cl)C1` (stereo not drawn) [Example 36, [1-[2-tert-butyl-7-[(2,3-dichlorophenyl)methyl]pyrrolo[2,3-d]pyrimidin-4-yl]pyrrolidin-3-yl]acetate], the EC50 was over 10000 nM in test [1] and 85.3 nM in test [2].

Turning to `CC(C)(C)c1nc(N2CCC(F)(F)C2)c2ccn(Cc3cccnc3Cl)c2n1` [Example 6, 2-tert-butyl-7-[(2-chloropyridin-3-yl)methyl]-4-(3,3-difluoropyrrolidin-1-yl)pyrrolo[2,3-d]pyrimidine], the EC50 in test [1] was over 10000 nM; in test [2], 12 nM.

As for `Cc1noc(Cn2ccc3c(N4CC5(COC5)C4)nc(C(C)(C)C)nc32)n1` [Example 15, 6-[2-tert-butyl-7-[(3-methyl-1,2,4-oxadiazol-5-yl)methyl]pyrrolo[2,3-d]pyrimidin-4-yl]-2-oxa-6-azaspiro[3.3]heptane], the EC50 in test [1] was over 10000 nM; in test [2] (setting [3]), 747 nM.

`CC(C)(C)c1nc(N2CC[C@H](O)C2)c2ccn(Cc3cccc(Cl)c3Cl)c2n1` [Example 42, (3S)-1-[2-tert-butyl-7-[(2,3-dichlorophenyl)methyl]pyrrolo[2,3-d]pyrimidin-4-yl]pyrrolidin-3-ol]: the EC50 in test [1] was over 10000 nM; in test [2] it was 3.5 nM.

On to `Cc1nonc1Cn1ccc2c(N3CC[C@H](O)C3)nc(C(C)(C)C)nc21` [Example 48, (3S)-1-[2-tert-butyl-7-[(4-methyl-1,2,5-oxadiazol-3-yl)methyl]pyrrolo[2,3-d]pyrimidin-4-yl]pyrrolidin-3-ol], for which the figures for the EC50 in test [1] and in test [2] were over 10000 nM and 8.5 nM, respectively.

`CC(C)(C)c1nc(N2CC[C@H](O)C2)c2ccn(Cc3ccccc3C(F)(F)F)c2n1` [Example 44, (3S)-1-[2-tert-butyl-7-[[2-(trifluoromethyl)phenyl]methyl]pyrrolo[2,3-d]pyrimidin-4-yl]pyrrolidin-3-ol]: the EC50 in test [1] is over 10000 nM; in test [2], 3.3 nM.

For the compound `CC(C)(C)c1nc(N2CC3(COC3)C2)c2ccn([C@H]3CCOC3)c2n1` [Example 16, 6-[2-tert-butyl-7-[(3S)-oxolan-3-yl]pyrrolo[2,3-d]pyrimidin-4-yl]-2-oxa-6-azaspiro[3.3]heptane], the EC50 is over 10000 nM in test [1] and 78.7 nM in test [2].

`CC(C)(C)c1nc(N2CC3(COC3)C2)c2ccn(Cc3ccccc3Cl)c2n1` [Example 14, 6-[2-tert-butyl-7-[(2-chlorophenyl)methyl]pyrrolo[2,3-d]pyrimidin-4-yl]-2-oxa-6-azaspiro[3.3]heptane]: the EC50 in test [1] is over 10000 nM; in test [2], 15.3 nM.

Consider `Cc1noc(Cn2ccc3c(N4CCC(O)C4)nc(C(C)(C)C)nc32)n1` (stereo not drawn) [Example 31, 1-[2-tert-butyl-7-[(3-methyl-1,2,4-oxadiazol-5-yl)methyl]pyrrolo[2,3-d]pyrimidin-4-yl]pyrrolidin-3-ol], for which the EC50 is over 10000 nM in test [1] and 316 nM in test [2] (setting [3]).

As to `CC(C)(C)c1nc(N2CC[C@H](O)C2)c2ccn(Cc3ccc(F)cc3Cl)c2n1` [Example 43, (3S)-1-[2-tert-butyl-7-[(2-chloro-4-fluorophenyl)methyl]pyrrolo[2,3-d]pyrimidin-4-yl]pyrrolidin-3-ol], the EC50 is over 10000 nM in test [1] and 6.3 nM in test [2].

For the compound `Cc1nonc1Cn1ccc2c(N3CC4(COC4)C3)nc(C(C)(C)C)nc21` [Example 22, 6-[2-tert-butyl-7-[(4-methyl-1,2,5-oxadiazol-3-yl)methyl]pyrrolo[2,3-d]pyrimidin-4-yl]-2-oxa-6-azaspiro[3.3]heptane], the EC50 in test [1] was over 10000 nM; in test [2], 48.4 nM.

As for `Cc1nnc(Cn2ccc3c(N4CC5(COC5)C4)nc(C(C)(C)C)nc32)o1` [Example 23, 6-[2-tert-butyl-7-[(5-methyl-1,3,4-oxadiazol-2-yl)methyl]pyrrolo[2,3-d]pyrimidin-4-yl]-2-oxa-6-azaspiro[3.3]heptane], the half-maximal effective concentration (EC50) was over 10000 nM in test [1] and 468 nM in test [2] (setting [3]).

On to `CC(C)(C)c1nc(N2CCC(F)(F)C2)c2ccn(Cc3nnnn3C3CC3)c2n1` [Example 13, 2-tert-butyl-7-[(1-cyclopropyltetrazol-5-yl)methyl]-4-(3,3-difluoropyrrolidin-1-yl)pyrrolo[2,3-d]pyrimidine], for which the EC50 is over 10000 nM in test [1] and 23 nM in test [2].

Take `Cc1nonc1Cn1ccc2c(N3CCC(F)(F)C3)nc(C(C)(C)C)nc21` [Example 9, 3-[[2-tert-butyl-4-(3,3-difluoropyrrolidin-1-yl)pyrrolo[2,3-d]pyrimidin-7-yl]methyl]-4-methyl-1,2,5-oxadiazole]: the EC50 is over 10000 nM in test [1] and 9.5 nM in test [2].

For the compound `CC(C)(C)c1nc(N2CCC(F)(F)C2)c2ccn(Cc3ccc(F)cc3Cl)c2n1` [Example 2, 2-tert-butyl-7-[(2-chloro-4-fluorophenyl)methyl]-4-(3,3-difluoropyrrolidin-1-yl)pyrrolo[2,3-d]pyrimidine], the EC50 in test [1] was over 10000 nM; in test [2], 26.5 nM.

For the compound `CC(C)(C)c1nc(N2CCC(O)C2)c2ccn(Cc3c[nH]nc3C(F)(F)F)c2n1` (stereo not drawn) [Example 40, 1-[2-tert-butyl-7-[[3-(trifluoromethyl)-1H-pyrazol-4-yl]methyl]pyrrolo[2,3-d]pyrimidin-4-yl]pyrrolidin-3-ol], the EC50 was over 10000 nM in test [1] and 35.6 nM in test [2].

Turning to `CC(C)(C)c1nc(N2CCC(O)C2)c2ccn(Cc3ccccc3Cl)c2n1` (stereo not drawn) [Example 24, 1-[2-tert-butyl-7-[(2-chlorophenyl)methyl]pyrrolo[2,3-d]pyrimidin-4-yl]pyrrolidin-3-ol], the EC50 is over 10000 nM in test [1] and 411 nM in test [2] (setting [3]).

In the case of `CC(C)(C)c1nc(N2CCC(O)C2)c2ccn(Cc3ncccc3Cl)c2n1` (stereo not drawn) [Example 30, 1-[2-tert-butyl-7-[(3-chloropyridin-2-yl)methyl]pyrrolo[2,3-d]pyrimidin-4-yl]pyrrolidin-3-ol], the EC50 was over 10000 nM in test [1] and 8.4 nM in test [2].

Take `CC(C)(C)c1nc(N2CCC(O)C2)c2ccn(Cc3nnnn3C3CC3)c2n1` (stereo not drawn) [Example 38, 1-[2-tert-butyl-7-[(1-cyclopropyltetrazol-5-yl)methyl]pyrrolo[2,3-d]pyrimidin-4-yl]pyrrolidin-3-ol]: the EC50 was over 10000 nM in test [1] and 173 nM in test [2] (setting [3]).

On to `CC(C)(C)c1nc(N2CCC(O)C2)c2ccn(Cc3cccc(Cl)c3Cl)c2n1` (stereo not drawn) [Example 28, 1-[2-tert-butyl-7-[(2,3-dichlorophenyl)methyl]pyrrolo[2,3-d]pyrimidin-4-yl]pyrrolidin-3-ol], for which the EC50 was over 10000 nM in test [1] and 14 nM in test [2].
